Test results: patent US7235548B2, “Compounds and their use as positive AMPA receptor modulators” (NeuroSearch A/S, priority 1998, dated 2007)

How the values were obtained:
[1] = test system: AMPA receptor; assay: Voltage clamp (whole cell patch clamp), current induced by AMPA in cultured mouse neocortical neurons; format: cell-based; settings: for reversibility of the potentiation: after wash out of the compound; for potentiation of the current induced by application of 30 μM AMPA: holding voltage −60 mV
Description: Experiments were performed in voltage clamp using conventional whole cell patch clamp methods (Hamill et al., 1981), essentially as described previously (Mathiesen et al., 1998). The following salt solutions were used (mM): NaCl (140), KCl (4), CaCl2 (2), MgCl2 (1), Sucrose (30), Tetrodotoxin (0.0003), Bicuculline Methiodide (0.005) and HEPES (10, pH 7.4). Intracellular solution (mM): CsCl (120), CsF (20), MgCl2 (2), EGTA (10), HEPES (10, pH=7.2).
Mouse neocortical neurons were cultured essentially as described by Drejer et al. (1987). Briefly, the forebrains from embryonic (E17) NMRI mice were removed under sterile conditions. The tissue was chopped in 0.4 mm cubes and the triturated with trypsin (12.5 μg/ml) and DNAse (2.5 μg/ml), 15 min, 37° C. The cells were suspended at a concentration of 1×10^6 cells/ml in a slightly modified DMEM which contained horse serum (10% (v/v)), penicillin (333 U/ml), paraaminobenzoic acid (1 mg/ml), L-glutamine (0.5 mM), insulin (0.08 U/ml) and KCl (23.8 mM). The cell suspension was subsequently inoculated into poly-L-lysine coated 35 mm Petri dishes (2 ml/dish). Glass coverslips (3.5 mm) were placed in the dishes before coating. After 24 hr in culture, the medium was replaced by freshly made medium containing 1% N2 supplement instead of serum.
The cells were kept in culture for 7–14 days at 37° C. (5% CO2/95% O2) before experiments were carried out.
Electronics, programs and data acquisition: The amplifier used was the EPC-9 (HEKA-electronics, Lambrect, Germany) run by a Power Macintosh G3 computer via an ITC-16 interface. Experimental conditions were set with the Pulse-software accompanying the amplifier. Data were low pass filtered and sampled directly to hard-disk at a rate of 3 times the cut-off frequency.
Pipettes and electrodes: Pipettes were pulled from borosilicate glass (Modulohm, Copenhagen, Denmark) using a horizontal electrode puller (Zeitz-Instrumente, Augsburg, Germany). The pipette resistances were 1.7–2.4 MW in the salt solutions used in these experiments. The pipette electrode was a chloridized silver wire, and the reference was a silverchloride pellet electrode (In Vivo Metric, Healdsburg, USA) fixed to the experimental chamber. The electrodes were zeroed with the open pipette in the bath just prior to sealing.
Experimental procedure: Coverslips were transferred to a […] experimental chamber mounted on the stage of an inverted microscope (IMT-2, Olympus) supplied with Nomarski optics. The neurons were continuously superfused with extracellular saline at a rate of 2.5 ml/min. After giga-seal formation (1–5 GW, success-rate≈90%) the whole cell configuration was attained by suction.
The cells were held at a holding voltage of −60 mV and at the start of each experiment the current was continuously measured for at least 30 sec to ensure a stable leak current. AMPA-containing solutions were delivered to the chamber through a custom-made gravity-driven flowpipe, the tip of which was placed approximately 50 μm from the cell. Application was triggered when the tubing connected to the flow pipe was compressed by a valve controlled by the Pulse-software. AMPA (30 μM) was applied for 1 sec every 45 sec. After obtainment of responses of a repeatable amplitude the compound to be tested was included in both the chamber and in the AMPA-containing solution. The compound was present until responses of a new repeatable was obtained.
The sample interval in all experiments was 310 μsec.
All experiments were performed at room temperature (20–25° C.).

[2] = target: ionotropic quisqualate (AMPA) receptors; assay: In vitro inhibition of 3H-AMPA binding; settings: 5 nM 3H-AMPA, rat cerebral cortex membranes, 30 min at 2° C.; read-out: IC50 (concentration of the test substance which inhibits the specific binding of 3H-AMPA by 50%)
Source text: L-glutamate (GLU) is the major excitatory neurotransmitter in the mammalian central nervous system. From electrophysiological- and binding studies, there appear to be at least three subtypes of GLU receptors, tentatively named N-methyl-D-aspartate (NMDA)-, quisqualate- and kainate receptors. GLU receptor subtypes sensitive to quisqualate and kainate as a group are often referred to as non-NMDA receptors. Receptor binding studies using the labelled agonists ^3H-AMPA (α-amino-3-hydroxy-5-methyl-4-isoxazolepropionic acid) (for quisqualate receptors) and ^3H-kainate (for kainate receptors) have shown different antagonist selectivities and regional distribution. AMPA has been known for several years to be a potent and selective agonist at the traditionally named quisqualate receptors. Activation of quisqualate receptors by AMPA is associated with Na^+ influx and K^+ efflux leading to depolarization.
The non-NMDA receptors have recently been reclassified to include the quisqualate activated metabotropic receptor type, linked to the inositol triphosphate and diacylglycerate metabolism. […] Selective activation of the metabotropic type has been claimed for trans-ACPD. Recently, the potent and competitive non-NMDA receptor antagonists CNQX and NBQX have been described, and CNQX have been reported not to block the effect of quisqualate at the metabotropic receptor subtype. ^3H-AMPA is a selective radioligand for labelling the ionotropic quisqualate (AMPA) receptors.
Preparations are performed at 0–4° C. unless otherwise indicated. Cerebral cortex from male Wistar rats (150–200 g) is homogenized for 5–10 sec in 20 ml Tris-HCl (30 mM, pH 7.4) using an Ultra-Turrax homogenizer. The suspension is centrifuged at 27,000×g for 15 min and the pellet is washed three times with buffer (centrifuged at 27,000×g for 10 min). The washed pellet is homogenized in 20 ml of buffer and incubated on a water bath (37° C.) for 30 min to remove endogenous glutamate and then centrifuged for 10 min at 27,000×g. The pellet is then homogenized in buffer and centrifuged at for 10 min at 27,000×g. The final pellet is resuspended in 30 ml buffer and the preparation is frozen and stored at −20° C.
The membrane preparation is thawed and centrifuged at 2° C. for 10 min at 27,000×g for 10 min. The pellet is washed twice with 20 ml 30 mM Tris-HCl containing 2.5 mM CaCl2, pH 7.4 using an Ultra-Turrax homogenizer and centrifuged for 10 min at 27,000×g. The final pellet is resuspended in 30 mM Tris-HCl containing 2.5 mM CaCl2 and 100 mM KSCN, pH 7.4 (100 ml per g of original tissue) and used for binding assays. Aliquots of 0.5 (0.2) ml are added to 25 (20) μl of test solution and 25(20) μl of ^3H-AMPA (5 nM, final concentration), mixed and incubated for 30 min at 2° C. Non-specific binding is determined using L-glutamate (0.6 mM, final concentration). After incubation the 550 μl samples are added 5 ml of ice-cold buffer and poured directly onto Whatman GF/C glass fibre filters under suction and immediately washed with 5 ml of ice-cold buffer. The 240 μl samples are filtered over glass fibre filter using a Skatron cell harvrester. The filters are washed with 3 ml ice-cold buffer. The amount of radioactivity on the filters is determined by conventional liquid scintillation counting. Specific binding is total binding minus non-specific binding.
The test value will be given as the IC50 (the concentration (μM) of the test substance which inhibits the specific binding of ^3H-AMPA by 50%)

| Structure (SMILES) | reversibility of the potentiation [1] | persistence of the effect after wash out ([1]; compound 3 μM) | potentiation of the current induced by application of 30 μM AMPA ([1]; compound 3 μM) | IC50 [2] [µM] | concentration dependence of the effect ([1]; FIG. 8) | potentiation of the current induced by application of 30 μM AMPA ([1]; compound 10 μM) |
| --- | --- | --- | --- | --- | --- | --- |
| O=S1(=O)NC(C2CCCCC2)Nc2ccc(S(=O)(=O)N3CCOCC3)cc21 (stereo not drawn) [Compound 63, 3-Cyclohexyl-7-morpholinosulfonyl-1,2,3,4-tetrahydro-1,2,4-benzothiadiazine-1,1-dioxide] | reversible | persits for several minutes after wash out | potentiated | 6 | – | – |
| Cc1cc2c(cc1S(=O)(=O)N1CCCCC1)S(=O)(=O)NC(C1CCCC1)N2 (stereo not drawn) [Compound 114, 3-Cyclopentyl-6-methyl-7-piperidinosulfonyl-1,2,3,4-tetrahydro-1,2,4-benzothia-diazine-1,1-dioxide] | reversible | – | potentiated | 33 | concentration-dependent | – |
| Cc1cc2c(cc1S(=O)(=O)N1CCOCC1)S(=O)(=O)NC(C1CCCCC1)N2 (stereo not drawn) [Compound 115, 3-Cyclohexyl-6-methyl-7-morpholinosulfonyl-1,2,3,4-tetrahydro-1,2,4-benzothiadiazine-1,1-dioxide] | reversible | – | – | 7 | – | potentiated |
| CN1CCN(S(=O)(=O)c2ccc3c(c2)S(=O)(=O)NC(C2CCCCC2)N3)CC1 (stereo not drawn) [Compound 61, 3-Cyclohexyl-7-(4′-methylpiperazino)sulfonyl-1,2,3,4-tetrahydro-1,2,4-benzothiadiazine-1,1-dioxide] | – | – | – | 8.5 | – | – |
